Results reported in ChEMBL document CHEMBL3885861, “Open TG-GATES”.

Species on record: Rattus norvegicus
Assay: Open TG-GATES - Regimen: Single
Type: toxicity, organism-based, Sprague-Dawley
Design: regimen Single, gender Male, age 6 weeks
Conditions: in vivo, po, 0 mg/kg, route gavage, dose level Control; for APTT / Bas / Eos / Fbg / Hb / Ht / Lym / MCH / MCHC / MCV / Mono / Neu / PT / Plat / RBC / Ret / WBC: tissue Blood; for KIDNEY_L / KIDNEY_R / KIDNEY_TOTAL: tissue Kidney; for LIVER: tissue Liver; for A/G / ALP / ALT / AST / BUN / CRE / Ca / Cl / DBIL / GLC / IP / K / LDH / Na / PL / RALB / TBIL / TC / TG / TP / gamma-GTP: tissue Plasma

CCc1oc2ccccc2c1C(=O)c1cc(I)c(O)c(I)c1 [BENZIODARONE]
TERMINAL_BW (3 h): 211.5 g | APTT (3 h): 16.8 s | Bas (3 h): 0% | Eos (3 h): 0.4% | Fbg (3 h): 205.2 mg/dL | Hb (3 h): 13.7 g/dL | Ht (3 h): 40.7% | Lym (3 h): 81.8% | MCH (3 h): 22 pg | MCHC (3 h): 33.6% | MCV (3 h): 65.5 fL | Mono (3 h): 8% | Neu (3 h): 9.6% | PT (3 h): 11.9 s | Plat (3 h): 114.1 x10_4/uL | RBC (3 h): 621 x10_4/ul | Ret (3 h): 9.1% | WBC (3 h): 100.3 x10_2/uL | KIDNEY_L (3 h): 1 g | KIDNEY_R (3 h): 1 g | KIDNEY_TOTAL (3 h): 2 g | LIVER (3 h): 9.9 g | A/G (3 h): 2.2 | ALP (3 h): 888.8 IU/L | ALT (3 h): 33.4 IU/L | AST (3 h): 64 IU/L | BUN (3 h): 12.8 mg/dL | CRE (3 h): 0.5 mg/dL | Ca (3 h): 10.8 mg/dL | Cl (3 h): 104.2 meq/L | DBIL (3 h): 0.006 mg/dL | GLC (3 h): 191.8 mg/dL | IP (3 h): 9.6 mg/dL | K (3 h): 4.6 meq/L | LDH (3 h): 93.2 IU/L | Na (3 h): 141.4 meq/L | PL (3 h): 146 mg/dL | RALB (3 h): 3.8 g/dL | TBIL (3 h): 0.3 mg/dL | TC (3 h): 79.4 mg/dL | TG (3 h): 59.8 mg/dL | TP (3 h): 5.5 g/dL | gamma-GTP (3 h): 1.4 IU/L | TERMINAL_BW (6 h): 210.7 g | APTT (6 h): 17.7 s | Bas (6 h): 0% | Eos (6 h): 0.8% | Fbg (6 h): 204.4 mg/dL | Hb (6 h): 13.8 g/dL | Ht (6 h): 41.4% | Lym (6 h): 84% | MCH (6 h): 21.7 pg | MCHC (6 h): 33.3% | MCV (6 h): 65.1 fL | Mono (6 h): 5% | Neu (6 h): 10.6% | PT (6 h): 12 s | Plat (6 h): 116.7 x10_4/uL | RBC (6 h): 636.4 x10_4/ul | Ret (6 h): 11.3% | WBC (6 h): 115.5 x10_2/uL | KIDNEY_L (6 h): 1 g | KIDNEY_R (6 h): 1 g | KIDNEY_TOTAL (6 h): 1.9 g | LIVER (6 h): 9.5 g | A/G (6 h): 2.2 | ALP (6 h): 852.8 IU/L | ALT (6 h): 33 IU/L | AST (6 h): 62 IU/L | BUN (6 h): 9.8 mg/dL | CRE (6 h): 0.5 mg/dL | Ca (6 h): 10.6 mg/dL | Cl (6 h): 104.6 meq/L | DBIL (6 h): 0.046 mg/dL | GLC (6 h): 180.2 mg/dL | IP (6 h): 9.3 mg/dL | K (6 h): 4.6 meq/L | LDH (6 h): 81.2 IU/L | Na (6 h): 141.4 meq/L | PL (6 h): 126.6 mg/dL | RALB (6 h): 3.7 g/dL | TBIL (6 h): 0.4 mg/dL | TC (6 h): 71.4 mg/dL | TG (6 h): 57.6 mg/dL | TP (6 h): 5.4 g/dL | gamma-GTP (6 h): 1.4 IU/L | TERMINAL_BW (9 h): 208.6 g | APTT (9 h): 18 s | Bas (9 h): 0% | Eos (9 h): 1% | Fbg (9 h): 199 mg/dL | Hb (9 h): 13.6 g/dL | Ht (9 h): 40% | Lym (9 h): 77.6% | MCH (9 h): 22.4 pg | MCHC (9 h): 34% | MCV (9 h): 66 fL | Mono (9 h): 7.2% | Neu (9 h): 14.4% | PT (9 h): 12.3 s | Plat (9 h): 113.9 x10_4/uL | RBC (9 h): 606 x10_4/ul | Ret (9 h): 8.6% | WBC (9 h): 92 x10_2/uL | KIDNEY_L (9 h): 1 g | KIDNEY_R (9 h): 1 g | KIDNEY_TOTAL (9 h): 1.9 g | LIVER (9 h): 8.7 g | A/G (9 h): 2.3 | ALP (9 h): 824.8 IU/L | ALT (9 h): 30.8 IU/L | AST (9 h): 62 IU/L | BUN (9 h): 9.8 mg/dL | CRE (9 h): 0.5 mg/dL | Ca (9 h): 10.3 mg/dL | Cl (9 h): 105.6 meq/L | DBIL (9 h): 0.062 mg/dL | GLC (9 h): 191.8 mg/dL | IP (9 h): 10.9 mg/dL | K (9 h): 4.5 meq/L | LDH (9 h): 67 IU/L | Na (9 h): 142.4 meq/L | PL (9 h): 128 mg/dL | RALB (9 h): 3.7 g/dL | TBIL (9 h): 0.3 mg/dL | TC (9 h): 71.2 mg/dL | TG (9 h): 32.8 mg/dL | TP (9 h): 5.3 g/dL | gamma-GTP (9 h): 0.8 IU/L | TERMINAL_BW (24 h): 224.5 g | APTT (24 h): 16.7 s | Bas (24 h): 0% | Eos (24 h): 1.2% | Fbg (24 h): 203.6 mg/dL | Hb (24 h): 13.3 g/dL | Ht (24 h): 39.4% | Lym (24 h): 75.8% | MCH (24 h): 22 pg | MCHC (24 h): 33.8% | MCV (24 h): 65.2 fL | Mono (24 h): 7.2% | Neu (24 h): 16.2% | PT (24 h): 11.8 s | Plat (24 h): 117.5 x10_4/uL | RBC (24 h): 604.6 x10_4/ul | Ret (24 h): 8.8% | WBC (24 h): 109.7 x10_2/uL | KIDNEY_L (24 h): 1 g | KIDNEY_R (24 h): 1 g | KIDNEY_TOTAL (24 h): 2 g | LIVER (24 h): 10.8 g | A/G (24 h): 2.1 | ALP (24 h): 1056.6 IU/L | ALT (24 h): 37.8 IU/L | AST (24 h): 66 IU/L | BUN (24 h): 17.6 mg/dL | CRE (24 h): 0.5 mg/dL | Ca (24 h): 10.7 mg/dL | Cl (24 h): 105.6 meq/L | DBIL (24 h): 0.008 mg/dL | GLC (24 h): 200.6 mg/dL | IP (24 h): 7.6 mg/dL | K (24 h): 4.8 meq/L | LDH (24 h): 76.2 IU/L | Na (24 h): 141.8 meq/L | PL (24 h): 149.8 mg/dL | RALB (24 h): 3.8 g/dL | TBIL (24 h): 0.3 mg/dL | TC (24 h): 76 mg/dL | TG (24 h): 109.6 mg/dL | TP (24 h): 5.6 g/dL | gamma-GTP (24 h): 1 IU/L
